Measurements taken from patent US20230248034A1, “A SWEETENER OR SWEETNESS ENHANCER COMPOSITION” (ANALYTICON DISCOVERY GMBH, priority 2020, published 2023).

Tests used:
[1] = Organoleptic test of the compounds against sucrose (sweetness); type: in vivo; parameters: key: 3: sweeter than the control solution; 2: sweetness comparable with the control solution; 1: less sweet than the control solution but still sweet; settings: 0.4 mg/ml (400 ppm) in non-carbonated mineral water vs sucrose 20 g/l; panel of 3-4 panelists
Experimental: The isolated pure compound was dissolved in non-carbonated mineral water (“Evian”) in a concentration of 0.4 mg/ml (400 ppm). The sweet taste of each sample was compared by a panel of 3-4 panelists with a solution of sucrose in a concentration of 20 g/l.

[2] = Organoleptic test in combination with Rebaudioside M (Rebaudioside M enhancement, 2-AFC); type: in vivo; parameters: key: x = detected; settings: compound below its sweetness perception level in 150 ppm Rebaudioside M vs 150 ppm Rebaudioside M, 12 to 15 panelists
Experimental: The isolated pure compounds were dissolved in non-carbonated mineral water (“Evian”) in a concentration of 50 ppm (0.05 mg/ml), 25 ppm (0.025 mg/ml), 12.5 pm (0.0125 mg/ml) and 6.125 ppm (0.006125 mg/ml). The sweet taste of each sample was detected by a panel of 3-4 panelists to detect the sweetness perception level. The highest concentration below the sweetness perception level was used for the evaluation of the sweet taste enhancement of Rebaudioside M.
(§1) A solution of the isolated compounds in a concentration below the sweetness perception level was dissolved in 150 ppm Rebaudioside M solution. The sweet taste of this sample was compared to the sweet taste of a 150 ppm Rebaudioside M solution by a panel of 12 to 15 panelists in a two-alternative forced-choice test (2-AFC. E2164-16_Standard Test Method for Directional Difference Test). The panelists were trained to differentiate between the sweetness of a 150 ppm and a 190 ppm Rebaudioside M solution.

[3] = Organoleptic test in combination with sucrose against sucrose (sucrose enhancement, 2-AFC); type: in vivo; parameters: key: x = detected; settings: compound below its sweetness perception level in 6% sucrose vs 6% sucrose, 12 to 15 panelists
Experimental: The isolated pure compounds were dissolved in non-carbonated mineral water (“Evian”) in a concentration of 50 ppm (0.05 mg/ml), 25 ppm (0.025 mg/ml), 12.5 pm (0.0125 mg/ml) and […] (0.00625 mg/ml). The sweet taste of each sample was detected by a panel of 3-4 panelists to detect the sweetness perception level. The highest concentration below the sweetness perception level was used for the evaluation of the sweet taste enhancement of sucrose.
as §1, with “compound” for “compounds”, “6% sucrose” for “150 ppm Rebaudioside M”, “6%” for “150 ppm”, “7% Sucrose” for “190 ppm Rebaudioside M”

[4] = 5% sucrose in water; cited from earlier work

SMILES: C[C@@H]1O[C@@H](O[C@@H]2[C@@H](O[C@@H]3O[C@@H](C)[C@H](O[C@@H]4OC[C@H](O)[C@H](O[C@@H]5OC[C@@H](O)[C@H](O)[C@H]5O)[C@H]4O)[C@@H](O[C@@H]4OC[C@](O)(CO)[C@H]4O)[C@H]3O)[C@H](OC(=O)[C@]34CCC(C)(C)C[C@H]3C3=CCC5[C@@]6(C)CC[C@H](O[C@@H]7O[C@H](CO[C@@H]8OC[C@H](O)[C@H](O)[C@H]8O)[C@@H](O)[C@H](O)[C@H]7O)C(C)(C)C6CC[C@@]5(C)[C@]3(C)C[C@H]4O)OC[C@H]2O)[C@H](O)[C@H](O)[C@H]1O (stereo partly shown) [Astersaponin D]
- Sweetness [1]: 2
- Reb M enhancement [2]: x
- Sucrose enhancement [3]: x

SMILES: C[C@@H]1O[C@@H](O[C@H]2[C@H](OC(=O)[C@]34CCC(C)(C)C[C@H]3C3=CCC5[C@@]6(C)C[C@H](O)[C@H](O[C@@H]7O[C@H](CO[C@@H]8OC[C@H](O)[C@H](O)[C@H]8O)[C@@H](O)[C@H](O)[C@H]7O)C(C)(C)C6CC[C@@]5(C)[C@]3(C)C[C@H]4O)OC[C@@H](O)[C@@H]2O)[C@H](O)[C@H](O[C@@H]2OC[C@](O)(CO)[C@H]2O)[C@H]1O[C@@H]1OC[C@H](O)[C@H](O[C@@H]2OC[C@@H](O)[C@H](O)[C@H]2O)[C@H]1O (stereo partly shown) [Astersaponin A]
- Sweetness [1]: 2
- Reb M enhancement [2]: x
- Sucrose enhancement [3]: x

SMILES: C[C@@H]1O[C@@H](O[C@@H]2[C@@H](O[C@@H]3O[C@@H](C)[C@H](O[C@@H]4OC[C@H](O)[C@H](O[C@@H]5OC[C@@H](O)[C@H](O)[C@H]5O)[C@H]4O)[C@@H](OC4OC[C@](O)(CO)[C@H]4O)[C@H]3O)[C@H](OC(=O)[C@]34CCC(C)(C)C[C@H]3C3=CCC5[C@@]6(C)C[C@H](O)[C@H](O[C@@H]7O[C@H](CO[C@@H]8OC[C@H](O)[C@H](O)[C@H]8O)[C@@H](O)[C@H](O)[C@H]7O)C(C)(C)C6CC[C@@]5(C)[C@]3(C)C[C@H]4O)OC[C@H]2O)[C@H](O)[C@H](O)[C@H]1O (stereo partly shown) [Astersaponin C]
- Sweetness [1]: 3
- Reb M enhancement [2]: x
- Sucrose enhancement [3]: x

SMILES: C[C@@H]1O[C@@H](O[C@H]2[C@H](OC(=O)[C@]34CCC(C)(C)C[C@H]3C3=CCC5[C@@]6(C)CC[C@H](O[C@@H]7O[C@H](CO[C@@H]8OC[C@H](O)[C@H](O)[C@H]8O)[C@@H](O)[C@H](O)[C@H]7O)C(C)(C)C6CC[C@@]5(C)[C@]3(C)C[C@H]4O)OC[C@@H](O)[C@@H]2O)[C@H](O)[C@H](O[C@@H]2OC[C@](O)(CO)[C@H]2O)[C@H]1O[C@@H]1OC[C@H](O)[C@H](O[C@@H]2OC[C@@H](O)[C@H](O)[C@H]2O)[C@H]1O (stereo partly shown) [Astersaponin B]
- Sweetness [1]: 1
- Reb M enhancement [2]: x
- Sucrose enhancement [3]: x

SMILES: COc1ccc([C@@H]2CC(=O)c3c(O)cc(O)cc3O2)cc1O [hesperetin]
- enhancement of the sweetness of sucrose [4]: 41%

SMILES: C[C@@H]1O[C@@H](O[C@H]2[C@H](OC(=O)[C@]34CCC(C)(C)C[C@H]3C3=CC[C@@H]5[C@@]6(C)C[C@H](O)[C@H](O[C@@H]7O[C@H](CO[C@@H]8OC[C@H](O)[C@H](O)[C@H]8O)[C@@H](O)[C@H](O)[C@H]7O)C(C)(C)[C@@H]6CC[C@@]5(C)[C@]3(C)C[C@H]4O)OC[C@@H](O)[C@@H]2O)[C@H](O)[C@H](O)[C@H]1O[C@@H]1OC[C@H](O)[C@H](O[C@@H]2OC[C@@H](O)[C@H](O)[C@H]2O)[C@H]1O [Astersaponin E]
- Sweetness [1]: 2
- Reb M enhancement [2]: x
- Sucrose enhancement [3]: x

SMILES: C[C@@H]1O[C@@H](O[C@H]2[C@H](OC(=O)[C@]34CCC(C)(C)C[C@H]3C3=CCC5[C@@]6(C)CC[C@H](O[C@@H]7O[C@H](CO[C@@H]8OC[C@H](O)[C@H](O)[C@H]8O)[C@@H](O)[C@H](O)[C@H]7O)C(C)(C)C6CC[C@@]5(C)[C@]3(C)C[C@H]4O)OC[C@@H](O)[C@@H]2O)[C@H](O)[C@H](O)[C@H]1O[C@@H]1OC[C@H](O)[C@H](O[C@@H]2OC[C@@H](O)[C@H](O)[C@H]2O)[C@H]1O (stereo partly shown) [Astersaponin F]
- Sweetness [1]: 1
- Reb M enhancement [2]: x
- Sucrose enhancement [3]: x
